Laboratory results published in patent US20060089378A1 (priority 2004, published 2006).
Where two headings read alike, the source gives them in different places.

Key:
Cannabinoid CB1 Receptor = target: T1, Cannabinoid CB1 Receptor (Homo sapiens, UniProt P21554); experiment: Binding assay for CB1 agonists or inverse agonists (radioligand competition, membranes of transfected SK-N-MC cells)
T1 construct: expressed in transfected cells

Cannabinoid CB2 Receptor = target: T2, Cannabinoid CB2 Receptor (Homo sapiens, UniProt P34972); experiment: Binding assay for CB2 agonists or inverse agonists (radioligand competition, membranes of transfected SK-N-MC cells); conditions: for inhibition at 0.2 µM: read-out: Cannabinoid CB2 Receptor Binding percent inhibition
T2 construct: expressed in transfected cells

CB1 receptor (human) = CB1 receptor (human) (Homo sapiens, UniProt P21554); experiment: cell-based
Chain of CB1 receptor (human) (P21554 whole entry): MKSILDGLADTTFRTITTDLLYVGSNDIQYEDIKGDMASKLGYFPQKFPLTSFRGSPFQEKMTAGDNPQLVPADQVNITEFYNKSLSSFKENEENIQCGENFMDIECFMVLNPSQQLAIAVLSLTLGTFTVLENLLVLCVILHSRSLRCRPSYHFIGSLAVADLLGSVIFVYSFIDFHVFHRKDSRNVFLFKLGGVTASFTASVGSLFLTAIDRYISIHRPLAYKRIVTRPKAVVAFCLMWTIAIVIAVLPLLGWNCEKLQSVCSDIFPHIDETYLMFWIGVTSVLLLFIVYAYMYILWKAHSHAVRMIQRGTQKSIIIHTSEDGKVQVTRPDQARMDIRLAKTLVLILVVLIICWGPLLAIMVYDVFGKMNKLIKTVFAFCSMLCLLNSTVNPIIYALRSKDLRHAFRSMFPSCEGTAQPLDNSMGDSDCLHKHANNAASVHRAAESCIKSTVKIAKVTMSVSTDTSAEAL

T2 sequence (P34972 whole entry): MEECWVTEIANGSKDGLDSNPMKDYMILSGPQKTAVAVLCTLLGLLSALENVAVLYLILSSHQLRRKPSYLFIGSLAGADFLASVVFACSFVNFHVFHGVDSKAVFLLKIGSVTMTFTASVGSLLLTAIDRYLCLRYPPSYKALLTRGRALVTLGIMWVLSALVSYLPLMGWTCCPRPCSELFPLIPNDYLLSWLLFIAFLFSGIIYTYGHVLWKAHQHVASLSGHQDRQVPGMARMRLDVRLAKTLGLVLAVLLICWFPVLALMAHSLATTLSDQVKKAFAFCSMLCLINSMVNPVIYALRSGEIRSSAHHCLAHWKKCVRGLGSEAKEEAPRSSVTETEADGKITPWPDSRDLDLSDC
T1 sequence (P21554 whole entry): as the sequence (P21554 whole entry) above

Structure (SMILES): C[C@@H](NC(=O)c1nn(-c2ccc(Cl)cc2)c2c1CN(S(C)(=O)=O)C/C2=C\c1ccc(F)cc1)c1ccccc1 [Cpd 71, (7E)-1-(4-chloro-phenyl)-7-(4-fluoro-benzylidene)-5-methanesulfonyl-4,5,6,7-tetrahydro-1H-pyrazolo[4,3-c]pyridine-3-carboxylic acid [(1R)-1-phenyl-ethyl]-amide]
- IC50 (Cannabinoid CB1 Receptor): 4 nM
- inhibition at 0.2 µM (Cannabinoid CB2 Receptor): 3%
- EC50 (CB1 receptor (human)): 1 nM

Structure (SMILES): COc1ccc(/C=C2\CN(S(C)(=O)=O)Cc3c(C(=O)NC(C)c4ccccn4)nn(-c4ccc(Cl)cc4Cl)c32)cc1 (stereo not drawn) [Cpd 63, (7E)-1-(2,4-dichloro-phenyl)-5-methanesulfonyl-7-(4-methoxy-benzylidene)-4,5,6,7-tetrahydro-1H-pyrazolo[4,3-c]pyridine-3-carboxylic acid (1-pyridin-2-yl-ethyl)-amide]
- IC50 (Cannabinoid CB1 Receptor): 6 nM
- inhibition at 0.2 µM (Cannabinoid CB2 Receptor): 48%
- EC50 (CB1 receptor (human)): 3 nM

Structure (SMILES): O=C(NN1CCCCC1)c1nn(-c2ccc(Cl)cc2)c2c1CNC/C2=C\c1ccc(F)cc1 [Cpd 76, (7E)-1-(4-chloro-phenyl)-7-(4-fluoro-benzylidene)-4,5,6,7-tetrahydro-1H-pyrazolo[4,3-c]pyridine-3-carboxylic acid piperidin-1-ylamide]
- inhibition at 0.2 µM (Cannabinoid CB1 Receptor; read-out: Cannabinoid CB1 Receptor Binding percent inhibition): 48%
- inhibition at 0.2 µM (Cannabinoid CB2 Receptor): 0%
- EC50 (CB1 receptor (human)): 30 nM

Structure (SMILES): CC(=O)N1C/C(=C\c2ccc(F)cc2)c2c(c(C(=O)N[C@H](C)C3CCCCC3)nn2-c2ccc(Cl)cc2Cl)C1 [Cpd 14, (7E)-5-acetyl-1-(2,4-dichloro-phenyl)-7-(4-fluoro-benzylidene)-4,5,6,7-tetrahydro-1H-pyrazolo[4,3-c]pyridine-3-carboxylic acid [(1R)-1-cyclohexyl-ethyl]-amide]
- IC50 (Cannabinoid CB1 Receptor): 8 nM
- inhibition at 0.2 µM (Cannabinoid CB2 Receptor): 16%
- EC50 (CB1 receptor (human)): 4 nM

Structure (SMILES): Cc1ccc(S(=O)(=O)N2CCc3c(c(C(=O)NC4C5(C)CCC(C5)C4(C)C)nn3Cc3ccccc3)C2)cc1 (stereo not drawn) [Cpd 125, 1-benzyl-5-(toluene-4-sulfonyl)-4,5,6,7-tetrahydro-1H-pyrazolo[4,3-c]pyridine-3-carboxylic acid (1,3,3-trimethyl-bicyclo[2.2.1]hept-2-yl)-amide]
- IC50 (Cannabinoid CB1 Receptor; human CB1, SK-N-MC cell membranes, calculated by linear regression from percent inhibition at various concentrations, read-out: Cannabinoid CB1 Receptor Binding IC50): 200 nM
- IC50 (Cannabinoid CB2 Receptor): 30 nM
- CB1 Receptor Functional Activity (change in functional activity, CRE β-gal) (CB1 receptor (human); one compound concentration, β-galactosidase activity relative to vehicle treated cells): 27%

Structure (SMILES): COC(=O)N1C/C(=C\c2ccc(F)cc2)c2c(c(C(=O)NN3CC4CCCC4C3)nn2-c2ccc(Cl)cc2Cl)C1 (stereo not drawn) [Cpd 92, (7E)-1-(2,4-dichloro-phenyl)-7-(4-fluoro-benzylidene)-3-(hexahydro-cyclopenta[c]pyrrol-2-ylcarbamoyl)-1,4,6,7-tetrahydro-pyrazolo[4,3-c]pyridinc-5-carboxylic acid methyl ester]
- IC50 (Cannabinoid CB1 Receptor): 20 nM
- inhibition at 0.2 µM (Cannabinoid CB2 Receptor): 4%
- EC50 (CB1 receptor (human)): 2 nM

Structure (SMILES): C[C@@H](NC(=O)c1nn(-c2ccc(Cl)cc2Cl)c2c1CN(C(=O)OCc1ccccc1)C/C2=C\c1ccc(F)cc1)c1ccccc1 [Cpd 16, (7E)-1-(2,4-dichloro-phenyl)-7-(4-fluoro-benzylidene)-3-[(1R)-1-phenyl-ethylcarbamoyl]-1,4,6,7-tetrahydro-pyrazolo[4,3-c]pyridine-5-carboxylic acid benzyl ester]
- IC50 (Cannabinoid CB1 Receptor): 20 nM
- inhibition at 0.2 µM (Cannabinoid CB2 Receptor): 27%
- EC50 (CB1 receptor (human)): 60 nM

Structure (SMILES): CCNC(=O)N1C/C(=C\c2ccc(F)cc2)c2c(c(C(=O)N[C@H](C)C3CCCCC3)nn2-c2ccc(Cl)cc2Cl)C1 [Cpd 32, (7E)-1-(2,4-dichloro-phenyl)-7-(4-fluoro-benzylidene)-1,4,6,7-tetrahydro-pyrazolo[4,3-c]pyridine-3,5-dicarboxylic acid 3-{[(1R)-1-cyclohexyl-ethyl]-amide} 5-ethylamide]
- IC50 (Cannabinoid CB1 Receptor): 20 nM
- inhibition at 0.2 µM (Cannabinoid CB2 Receptor): 6%
- EC50 (CB1 receptor (human)): 3 nM

Structure (SMILES): COc1ccc(/C=C2\CN(S(C)(=O)=O)Cc3c(C(=O)N[C@H](C)c4ccccn4)nn(-c4ccc(Cl)cc4Cl)c32)cc1 [Cpd 99, (7E)-1-(2,4-dichloro-phenyl)-5-methanesulfonyl-7-(4-methoxy-benzylidene)-4,5,6,7-tetrahydro-1H-pyrazolo[4,3-c]pyridine-3-carboxylic acid [(1R)-1-pyridin-2-yl-ethyl]-amide]
- IC50 (Cannabinoid CB1 Receptor): 2 nM
- inhibition at 0.2 µM (Cannabinoid CB2 Receptor): 32%
- EC50 (CB1 receptor (human)): 3 nM
